From patent US8940727B2, “Benzazepine compound” (Otsuka Pharmaceutical Co., Ltd., priority 2009, dated 2015)

Assay: Metabolic stability assay in human liver microsomes
Type: in vitro ADME
Conditions: for microsomal CLint at 1 μM: human liver microsomes 0.2 mg/mL, test compound 1 μM, NADPH/NADH, n = 4, read-out: hepatic intrinsic clearance (Clint)
Method: The following reaction system was prepared with reference to the method disclosed by Obach, and that disclosed by Jones et al. (References 1 and 2), and the metabolic stability thereof was evaluated. Note that the human liver microsomes used were purchased from BD Gentest. The test compound was dissolved in DMSO to have a concentration of 10 mM and diluted with acetonitrile in such a manner that its concentration became 100 μM.
A reaction system without a coenzyme was preincubated at 37° C. for 5 minutes, and a coenzyme was then added to start the reaction. After the addition of the coenzyme, the incubation was performed at selected time intervals, i.e., 0, 5, 10, 20, 30 and 60 minutes to extract a portion of the reaction mixture. The extracted reaction mixture was added to an acetonitrile solution containing an internal standard substance and the reaction was then terminated.
After the reaction was terminated, the resulting mixture was centrifuged, the supernatant was poured into a liquid chromatograph tandem mass spectrometer (LC-MS/MS) to determine the level of unchanged substance remaining in the reaction system. Ionization was performed by electro-spray ionization (ESI) in a positive ion detection mode. Here, selected reaction monitoring (MRM) using preset precursor ions and product ions was employed.
The remaining ratio of the test compound was calculated by the following equation. Remaining ratio=(peak area of the test compound at the reaction time of t minutes/peak area of the internal standard substance)÷(peak area of the test compound at the reaction time of 0 minutes/peak area of the internal standard substance)
A nonlinear least-squares analysis was performed in terms of the remaining ratio and incubation time to obtain the elimination rate constant (0.693/t1/2), and, further, the hepatic intrinsic clearance (Clint) was obtained using the following Formula (1). Clint (μL/min/mg)=(0.693/t1/2)÷0.2 (mg/mL)×1000 (1) […]

Row | SMILES | microsomal CLint at 1 μM | metabolic stability compared to tolvaptan (human liver microsomes, two-tailed Dunnett's test, p<0.001)
1 | [2H]C1([2H])CC([2H])([2H])C([2H])(O)c2cc(Cl)ccc2N1C(=O)c1ccc(NC(=O)c2ccccc2C)cc1C (stereo not drawn) [Example 4, N-(4-(7-chloro-5-hydroxy-2,2,4,4,5-pentadeutero-1H-benzo[b]azepine-1-carbonyl)-3-methylphenyl)-2-methylbenzamide] | 166 ± 5.3 µL/min/mg | significantly improved metabolic stability compared to tolvaptan
2 | Cc1ccccc1C(=O)Nc1ccc(C(=O)N2CCCC(O)c3cc(Cl)ccc32)c(C)c1 (stereo not drawn) [Tolvaptan, tolvaptan, reference compound] | 214 ± 4.3 µL/min/mg | –
